Reference: patent US20260116921A1, “PEPTIDE INHIBITORS OF INTERLEUKIN-23 RECEPTOR AND THEIR USE TO TREAT INFLAMMATORY DISEASES” (priority 2018, published 2026)
Numbered stars: 1 amine (or outer) side, 2 acyl side, 3 side chain; on linkers, the order of the positions; unused ones are H or OH. Bridge positions count the residues as written; N and C are the ends. Square brackets hold non-standard residues; d marks the D form. Peptide text beside a SMILES is read from it. Trp(7-Me) = Cc1cccc2c(C[C@H](N)C(=O)O)c[nH]c12; Abu(4-yl) = O=C([C@H](CC[*:3])N[*:1])[*:2]; 2Nal = N[C@@H](Cc1ccc2ccccc2c1)C(=O)O; AEF = NCCOc1ccc(C[C@H](N)C(=O)O)cc1; αMeF = C[C@](N)(Cc1ccccc1)C(=O)O; Cit = NC(=O)NCCC[C@H](N)C(=O)O; Pen = CC(C)(S)[C@H](N)C(=O)O; αMeK = C[C@](N)(CCCCN)C(=O)O; Aib = CC(C)(N)C(=O)O; βAla = NCCC(=O)O; Sar = CNCC(=O)O

The molecules below were run against T1, IL-23R (Homo sapiens, UniProt Q5VWK5) (assay: DB cells IL23R pSTAT3 cell assay (pStat3 HTRF)). Conditions: Table E3; DB cells, IL-23 0.5 nM, 30 minutes at 37° C.; read-out: pStat3 HTRF (IC50).
T1 sequence (Q5VWK5 24-629): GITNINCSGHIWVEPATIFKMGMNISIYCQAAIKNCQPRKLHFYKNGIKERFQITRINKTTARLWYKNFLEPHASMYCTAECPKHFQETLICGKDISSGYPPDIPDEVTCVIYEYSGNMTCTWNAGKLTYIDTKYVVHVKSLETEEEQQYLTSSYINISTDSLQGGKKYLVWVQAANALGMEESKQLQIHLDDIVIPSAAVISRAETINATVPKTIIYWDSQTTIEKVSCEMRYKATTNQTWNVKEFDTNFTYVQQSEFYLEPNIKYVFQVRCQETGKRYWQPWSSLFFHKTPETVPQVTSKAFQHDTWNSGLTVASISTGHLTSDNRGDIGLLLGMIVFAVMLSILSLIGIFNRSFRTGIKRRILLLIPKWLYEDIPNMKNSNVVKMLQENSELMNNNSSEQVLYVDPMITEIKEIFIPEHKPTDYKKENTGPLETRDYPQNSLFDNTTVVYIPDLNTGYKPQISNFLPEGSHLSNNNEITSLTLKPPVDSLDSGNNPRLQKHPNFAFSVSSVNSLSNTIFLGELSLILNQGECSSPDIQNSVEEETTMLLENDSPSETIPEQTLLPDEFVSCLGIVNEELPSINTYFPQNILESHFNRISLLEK
Type: cell-based
Text: Human ELISA indicates the IL23-IL23R competitive binding assay described below, Rat ELISA indicates the rat IL-23R competitive binding ELISA assay described below, and pStat3HTRF indicates the DB cells IL-23R pSTAT3 cell assay described below. The peptides depicted in Table E1 are cyclized via a disulfide bridge formed between two Pen residues in these peptides. The peptides depicted in Table E2 are cyclized via a thioether bond between the indicated amino acid residues. Table E2 provides an illustrative structure depicting thioether cyclization, which is indicated in the table by the term “cyclo,” with the cyclic region bracketed immediately following the term “cyclo.” For certain peptides, the residue Abu is present where indicated, whereas in other embodiments, e.g., those related to the non-cyclized form, the Abu may be referred to as a hSer(Cl) or homoSer residue.
DB Cells IL23R pSTAT3 Cell Assay
IL-23 plays a central role in supporting and maintaining Th17 differentiation in vivo. This process is thought to be mediated primarily through the Signal Transducer and Activator of Transcription 3 (STAT3), with phosphorylation of STAT3 (to yield pSTAT3) leading to upregulation of RORC and pro-inflammatory IL-17. This cell assay examines the levels of pSTAT3 in IL-23R-expressing DB cells when stimulated with IL-23 in the presence of test compounds. Serial dilutions of test peptides and IL-23 (Humanzyme #HZ-1261) at a final concentration of 0.5 nM, were added to each well in a 96 well tissue culture plate (Corning #CLS3894). DB cells (ATCC #CRL-2289), cultured in RPMI-1640 medium (Thermo Scientific #11875093) supplemented with 10% FBS, were added at 5×10E5 cells/well and incubated for 30 minutes at 37° C. in a 5% CO2 humidified incubator. Changes in phospho-STAT3 levels in the cell lysates were detected using the Cisbio HTRF pSTAT3 (Tyr705) Cellular Assay Kit (Cisbio #62AT3PEH), according to manufacturer's Two Plate Assay protocol.

Structure (SMILES) | IC50
CC(=O)NCCCC[C@@H]1NC(=O)[C@H](Cc2c[nH]c3c(C)cccc23)NC(=O)[C@H]([C@@H](C)O)NC(=O)[C@H](CCC(N)=O)NC(=O)[C@@H](NC(=O)[C@@H](CCCNC(=N)N)NC(C)=O)CCSC[C@@H](C(=O)N[C@@H](Cc2ccc(OCCN)cc2)C(=O)N[C@@H](Cc2ccc3ccccc3c2)C(=O)N[C@@](C)(CCCCN)C(=O)N[C@@H](CCCCNC(C)=O)C(=O)N[C@@H](CC(N)=O)C(=O)N[C@@](C)(Cc2ccccc2)C(N)=O)NC1=O [compound 327] (Ac-[dR][Abu(4-yl)]QT[Trp(7-Me)]K(Ac)C[AEF][2Nal][αMeK]K(Ac)N[αMeF]-NH2; thioether 2-7) | 10 to 100 nM
CC(=O)NCCCC[C@H](NC(=O)[C@](C)(CCCCN)NC(=O)[C@H](Cc1ccc2ccccc2c1)NC(=O)[C@H](Cc1ccc(OCCN)cc1)NC(=O)[C@H]1NC(=O)[C@H](CCCNC(N)=O)NC(=O)[C@H](Cc2c[nH]c3c(C)cccc23)NC(=O)[C@H]([C@@H](C)O)NC(=O)[C@H](CC(N)=O)NC(=O)[C@@H](NC(C)=O)C(C)(C)SSC1(C)C)C(=O)N[C@@H](CC(N)=O)C(=O)N(C)CC(N)=O [compound 339] (Ac-[Pen]NT[Trp(7-Me)][Cit][Pen][AEF][2Nal][αMeK]K(Ac)N[Sar]-NH2; disulfide 1-6) | 1 to 10 nM
CC(=O)NCCCC[C@H](NC(=O)[C@](C)(CCCCN)NC(=O)[C@H](Cc1ccc2ccccc2c1)NC(=O)[C@H](Cc1ccc(OCCN)cc1)NC(=O)[C@H]1NC(=O)[C@H](CCCNC(N)=O)NC(=O)[C@H](Cc2c[nH]c3c(C)cccc23)NC(=O)[C@H]([C@@H](C)O)NC(=O)[C@H](CC(N)=O)NC(=O)[C@@H](NC(C)=O)C(C)(C)SSC1(C)C)C(=O)N[C@@H](CC(N)=O)C(=O)NC(C)(C)C(=O)N[C@@H](CCCNC(=N)N)C(N)=O [compound 343] (Ac-[Pen]NT[Trp(7-Me)][Cit][Pen][AEF][2Nal][αMeK]K(Ac)N[Aib]R-NH2; disulfide 1-6) | 1 to 10 nM

More lines, now with the values ahead:

IC50 | Structure (SMILES)
< 1 nM | CC(=O)NCCCC[C@H](NC(=O)[C@](C)(CCCCN)NC(=O)[C@H](Cc1ccc2ccccc2c1)NC(=O)[C@H](Cc1ccc(OCCN)cc1)NC(=O)[C@H]1NC(=O)[C@H](CCCNC(N)=O)NC(=O)[C@H](Cc2c[nH]c3c(C)cccc23)NC(=O)[C@H]([C@@H](C)O)NC(=O)[C@H](CC(N)=O)NC(=O)[C@@H](NC(C)=O)C(C)(C)SSC1(C)C)C(=O)N[C@@H](CC(N)=O)C(=O)NC(C)(C)C(=O)NCCC(N)=O [compound 340] (Ac-[Pen]NT[Trp(7-Me)][Cit][Pen][AEF][2Nal][αMeK]K(Ac)N[Aib][βAla]-NH2; disulfide 1-6)
< 1 nM | CC(=O)NCCCC[C@H](NC(=O)[C@](C)(CCCCN)NC(=O)[C@H](Cc1ccc2ccccc2c1)NC(=O)[C@H](Cc1ccc(OCCN)cc1)NC(=O)[C@H]1NC(=O)[C@H](CCCNC(N)=O)NC(=O)[C@H](Cc2c[nH]c3c(C)cccc23)NC(=O)[C@H]([C@@H](C)O)NC(=O)[C@H](CC(N)=O)NC(=O)[C@@H](NC(C)=O)C(C)(C)SSC1(C)C)C(=O)N[C@@H](CC(N)=O)C(=O)NC(C)(C)C(=O)NCC(N)=O [compound 341] (Ac-[Pen]NT[Trp(7-Me)][Cit][Pen][AEF][2Nal][αMeK]K(Ac)N[Aib]G-NH2; disulfide 1-6)
< 1 nM | CC(=O)NCCCC[C@H](NC(=O)[C@](C)(CCCCN)NC(=O)[C@H](Cc1ccc2ccccc2c1)NC(=O)[C@H](Cc1ccc(OCCN)cc1)NC(=O)[C@H]1NC(=O)[C@H](CCCNC(N)=O)NC(=O)[C@H](Cc2c[nH]c3c(C)cccc23)NC(=O)[C@H]([C@@H](C)O)NC(=O)[C@H](CC(N)=O)NC(=O)[C@@H](NC(C)=O)C(C)(C)SSC1(C)C)C(=O)N[C@@H](CC(N)=O)C(=O)NC(C)(C)C(=O)N[C@@H](C)C(N)=O [compound 342] (Ac-[Pen]NT[Trp(7-Me)][Cit][Pen][AEF][2Nal][αMeK]K(Ac)N[Aib]A-NH2; disulfide 1-6)
